For experiment [1], the system named is proliferating chondrocytes. Kind of experiment: viability / proliferation of proliferating chondrocytes (low cell density). The experiment is classed as cell-based. The conditions noted are these: for proliferation of cells, such as chondrocytes: summary statement. How it is done: In order to compare the effect of orthovanadate on non-proliferating and proliferating chondrocytes, chondrocytes were plated at both high cell density (2×10^6 to 4×10^6 cells/per well on a six well plate) (nonproliferating) and at a lower cell density (5×10^5 to 1×10^6 cells/per well on a six well plate) (proliferating) and then maintained for 48 hours. The cells were then incubated in media (HAMS F12) containing 0-50 μM Orthovanadate for an additional 48 hours. The cells were harvested and the number of viable cells determined.

Experiment [2] deals with P388 (WT). The experiment in a line: MTT cytotoxicity assay, P388 (WT). Particulars: P388 (WT), 72 hours; read-out: IC50 Value. Format: cell-based, murine. Put shortly:
(§1)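 Cells seeded at line-dependent densities 24 h before adding vanadium compounds at 0.05-100 μM, then exposed continuously for 72 h. MTT added for 4 h, formazan dissolved in DMSO, absorbance read at 570 nm. IC50 taken from % control vs concentration plot; mean of three runs.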

Experiment [3] concerns Lewis lung. The experiment in a line: MTT cytotoxicity assay, Lewis lung. The experiment is classed as cell-based, murine. The conditions noted are these: 72 hours. How it is done: (§2) The relative cytotoxicity of various compounds on tumor cell lines was investigated as follows. Cytotoxicity was measured by the MTT microculture tetrazolium colorimetric assay for all cell lines. The relative cytotoxicity of Na3 VO4 and VOSO4 was investigated using the following tumor cell lines: P388(WT) murine leukemia, P388 (ADR) murine leukemia, Lewis murine lung, MCF7 (WT) human breast, […] human lung, K562 human erythroleukemia, A431 human epidermal, LS180 human colon and SK-OV-3 human ovarian. The relative cytotoxicity of doxorubicin, Na3 VO4 and VOSO4 was investigated using the following tumor cell lines: P388(WT) murine leukemia, P388 (ADR) murine leukemia, MCF7(WT) human breast and MCF7 (ADR) human breast. The relative cytotoxicity of BMOV, BEOV and naglivan was investigated using the following tumor cell lines: P388(WT) murine leukemia, P388 (ADR) murine leukemia, Lewis murine lung, H460 human lung, K562 human erythroleukemia, and SK-OV-3 human ovarian.
(§3) The cells were plated (number of cells/well was different from cell line to cell depending on the dividing rate) in a 96-well microculture plate 24 hours prior to the delivery of the vanadium compounds. Serial concentrations of solutions of the test compounds (0.05-100 μM) were delivered to the corresponding wells. A blank column (without cells) and a control column (with cells without vanadium) were left. The cells were incubated for 72 hours continuously. An MTT solution was added to each well after this incubation period and the cells were incubated for 4 more hours for the completion of the dyeing process. The medium was removed find DMSO was added to each well. The absorbance of each well was read with a Titertek Multiskan (310C) spectrophotometer at 570 nm. The percentage of the absorbance of each vanadium concentration relative to the control calculated and the value of the 50% growth inhibition concentration (IC50) was obtained from the % control versus concentration plot. Each assay was repeated three times and the reported IC50 values were the mean of these three runs.

Experiment [4] deals with K562. Kind of experiment: MTT cytotoxicity assay, K562. Particulars: K562, 72 hours. The experiment is classed as cell-based, human. Here is the method: as §2
as §3, with “Serial concentrations of solutions of the test compounds (0.05-100 μM) were delivered to the corresponding wells.” left out

For experiment [5], the system named is H460. The experiment in a line: MTT cytotoxicity assay, H460. Format: cell-based, human. Particulars: H460, 72 hours. How it is done: as §2, §3
In experiment [6] the test system is collagenase. Kind of experiment: collagenase production by chondrocytes (ELISA). The experiment is classed as cell-based, bovine. Particulars: for production of metalloproteases, such as collagenase: summary statement. Put shortly:
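Bovine articular chondrocytes, orthovanadate 100 μM pretreatment 2 h, then IL 1 (10 ng/ml) or PMA ([…]). Collagenase by ELISA of medium after 24 h; PLA2 as 3H-AA released over 10 min in 1 mg/ml BSA medium; PGE2 by RIA of supernatant after 6 h in Ham's F12.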

The test system of experiment [7] is SK-OV-3. The experiment in a line: MTT cytotoxicity assay, SK-OV-3. The experiment is classed as cell-based, human. The conditions noted are these: SK-OV-3, 72 hours. How it is done:
as §2, §3

Experiment [8] concerns P388 (ADR). Kind of experiment: MTT cytotoxicity assay, P388 (ADR). The conditions noted are these: P388 (ADR), 72 hours; read-out: IC50 Value. Format: cell-based, murine. The method, boiled down:
as §1

The test system of experiment [9] is MCF7 (ADR). The experiment in a line: MTT cytotoxicity assay, MCF7 (ADR). Format: cell-based, human. The conditions noted are these: MCF7 (ADR), 72 hours; read-out: IC50 Value. How it is done:
as §2, §3

In experiment [10] the test system is MCF7 (WT). The experiment in a line: MTT cytotoxicity assay, MCF7 (WT). The experiment is classed as cell-based, human. The conditions noted are these: MCF7 (WT), 72 hours; read-out: IC50 Value. Here is the method:
as §2, §3

In experiment [11] the test system is PLA2. The experiment in a line: release of 3H-arachidonic acid from chondrocytes (PLA2 activity). The experiment is classed as cell-based, bovine. The conditions noted are these: 100 μM. Here is the method:
The effect of orthovanadate and N-acetylcysteine on fos, jun and collagenase expression were examined. Bovine articular chondrocytes were isolated and plated as previously described (Kandel R. A. et al. Biochim. Biophys. Acta. 1053, 130-134, 1990). In order to determine the effect of orthovanadate on IL 1 and PMA (phorbol ester) induced responses, chondrocytes were incubated with orthovanadate (100 μM) for 2 hours before stimulation with IL 1 (10 ng/ml) or PMA ([…]). Collagenase production was determined by incubating chondrocytes for 24 hours with IL 1 or PMA and the cell conditioned medium was assayed for collagenase activity using an ELISA procedure as described previously (Kandel et al. supra). PLA2 activity was measured by incorporating ^3 H-arachidonic acid (^3 H-AA) into the cells and then incubating the cells with medium containing 1 mg/ml BSA, either alone or in the presence of IL 1 or PMA, for 10 min. as previously described (Conquer, J. A. […], Biochim. Biophys. Acta. 1134, 1-6). The amount of ^3 H-AA liberated into the supernatant was determined. To measure PGE2 production, chondrocytes were incubated for 6 hours in Ham's F12 medium, either alone or with IL 1 or PMA. The supernatant was analyzed by RIA using an antibody specific for PGE2 (Dr. S. A. Jones, Mount Sinai Hospital, Toronto, Canada). […]

In the case of `Cc1occc(=O)c1[O-].Cc1occc(=O)c1[O-].[O]=[V+2]` [BMOV, bis(methylmaltolato) oxovanadium (IV)], the “proliferation of cells, such as chondrocytes” value in experiment [1] is “inhibit”. The IC50 in experiment [2] is 31.1 µM; in experiment [3] it was 142 µM; in experiment [4], > 1000 µM; in [5], 6.4 µM; in experiment [7] it was 2.6 µM; in experiment [8], 61.2 µM. The “production of metalloproteases, such as collagenase” value in experiment [6] is given as “inhibit”.

Consider `[Na+].[Na+].[Na+].[O]=[V]([O-])([O-])[O-]` [orthovanadate, sodium orthovanadate], for which the “toxicity to cells plated at low cell density” value in experiment [1] (0-50 μM, 48 hours) is reported as “toxic”. In experiment [1], the “proliferation of cells, such as chondrocytes” value was “inhibit”. The IC50 in experiment [2] turned out to be 5.5 µM; in [9], 30.7 µM; in experiment [3], 42.3 µM; in experiment [10], 8.5 µM; in experiment [4], 100 µM; in [5], 1.5 µM. In addition, the results for the IC50 in experiment [7] and in experiment [8] were 2 µM and 14.8 µM, respectively. Besides, the “inhibition of collagenase production” value in experiment [6] (100 μM, IL 1 or PMA stimulated) was “completely inhibited”. The “production of metalloproteases, such as collagenase” value in experiment [6] is reported as “inhibit”. Further, in [11], the “inhibition of IL 1 or PMA induced release of 3H-AA” value is on record as “did not inhibit”.

(Values after patent publication US5871779A, “Treatment of arthropathies with vanadate compounds or analogues thereof” (Mount Sinai Hospital Corporation, priority 1996, dated 1999).)
